# Assay results as given in patent publication US10385061B2, “Medicarpin, its derivatives, manufacturing method thereof” (PhytoHealth Corporation, priority 2016, dated 2019).
# Like-named read-outs stand apart in the source and are kept apart here.
# Legend:
# [1] = tested on: dox-induced cardiomyopathic mice; conditions: for EF (Ejection fraction) / FS (Fractional shortening) / IVS; d / IVS; s / LVID; d / LVID; s / LVPW; d / LVPW; s: week 3, mean±SEM
# Description: C57BL/6J male mice (6 to 8 weeks old) were injected intraperitoneally with triple dose of 5, 5, or 8 mg/kg doxorubicin-HCl (Sigma-Aldrich), respectively. In control group, the mice (n=6) were injected intraperitoneally with saline. 1 week after injection, the degree of heart failure was determined by the increase of S-T segment in electrocardiogram, and then the mice were randomly reclassified into the control group (Dox/Ctrl, n=9) and experimental group (Dox+Med) (FIG. 9). In the experimental group, the mice were fed a diet containing 10, 30, or 90 mg/kg/day medicarpin, respectively. Each experiment group consisted of 7 mice. After feedings, the mice were subjected to the rotarod endurance test, echocardiography and electrocardiogram.
# The mice from all treatment groups were anaesthetized with isoflurane (0.75-1.5% inhalation); and echocardiographic measurements were taken in M-mode in triplicate for each mouse using an ATL HDI 5000 ultrasound system (Philips Medical Systems, ATL Ultrasound, Bothell, Wash., USA).
# doxorubicin-induced mice = test: Treadmill endurance assessment under normoxic or hypoxic conditions; assay type: in vivo; conditions: 3 weeks administration, normoxic and hypoxic (8% O2) conditions, dose-dependent
# Description: Before being divided into treatment groups, 8 to 10 week-old C57B1/6J male mice were trained on a treadmill for a maximum of 10 min for each of three consecutive training sessions per day for 3 days. […] On the testing day, each mouse was subjected to three trials on the treadmill at under a normoxic or hypoxic (8% O2) atmosphere. The endurance performance was measured over time until the mice suffered from electric shock over 35 times/min (electric shock system is on the end of the treadmill). The maximum trial length was 60 min and there was a 30-min rest period between each trial. (Table 2)
# [2] = tested on: erythroid progenitor cells; test: Hemoglobin colorimetric assay of bone marrow cells (erythroid progenitor differentiation); assay type: cell-based, mouse; conditions: low concentration (0.1 to 10 μg/mL), 96 hours, A610
# Description: C57BL/6J male mice (6 weeks old) were used in this Example to collect bone marrow cells. The hind legs were of mice were obtained to remove excess flesh from the leg bone and cut off the ends of the bones. The bones were flushed with α-MEM medium using 23-gauge needle to elute bone marrow cells, and then filtrated by No. 53 nylon mesh filter to obtain the bone marrow cells solution.
# 96-well plates (U-bottom shape) were centrifuged at 1200 rpm (Kubota 6800) at 25° C. for 5 minutes. After centrifugation, the supernatant was removed and the bone marrow cells were mixed equally with 50 μL lysis buffer (0.01% NP-40) for 10 minutes. Then, 150 μL of 500 μM DAF (2,7-Diaminofluorene, Sigma-Aldrich) solution and 6 μL of 30% H2O2 were added and treated with the bone marrow cells for 5 minutes, and absorbance at 610 nm (A610) was determined. Student's t-test were used to compare data.
# [3] = tested on: cisplatin-induced nephropathic mice; test: Cisplatin-induced nephropathic mice model; assay type: in vivo
# Description: C57BL/6J male mice (8 to 10 weeks old) were injected i.p. (Intraperitoneal) with three doses of cisplatin (CDDP) (Sigma-Aldrich), following the scheme of 7, 6 and 7 mg/kg body weight, at 1, 5, 10 day, and the normal group (n=6) was injected with saline. On day 12, serum samples were collected and assayed for blood urea nitrogen content (BUN). Mice with BUN values greater than 100 mg/100 mL were chosen for the experiment. […] The mice were (BUN=80-300 mg/dL) subsequently divided randomly into four cohorts comprising the control and three medicarpin-treated groups, medicarpin 10, 30, 90 mg/kg/day (CDDP+Med 10, CDDP+Med 30, CDDP+Med 90) (n=6 for each group) for an additional 2 weeks. Blood samples from all the mice were collected on day 12. The red blood cell (RBC) numbers were determined from the complete blood cell count using a Sysmex Kx-21 haematology analyser (Sysmex America Inc., Mundelein, Ill., USA), and the serum BUN levels were determined through the urease GLDH method using a commercial kit (DiaSys Diagnostic System GmbH, Frankfurt, Germany). The administration and blood collection schedules were carried out according to the FIG. 4. […] However, the number of RBC in control group without medicarpin treatment was still low. […] The number of WBCs was recovered in the mice after 2 week of medicarpin treatment. […] Similarly, the number of platelet (PLT) also was decreased by cisplatin. […] (FIG. 5D).
# One month after treatment of medicarpin, the expression of EPO was increased in liver (FIG. 7A) and kidney (FIG. 7B) of mice.
substance,measurement,setting,value
(+)-Medicarpin,prolonged S-T interval,"[1]; 90 mg/kg/day, one week after treatment, electrocardiogram",improved
same,ejection fractions and fractional shortening,"[1]; 30 and 90 mg/kg, vs doxorubicin alone",significantly greater
same,EF (Ejection fraction),[1]; Dox + Med10 (10 mg/kg/day),58.44 ± 2.55%
same,FS (Fractional shortening),[1]; Dox + Med10 (10 mg/kg/day),30.32 ± 1.56%
same,IVS; d,[1]; Dox + Med10 (10 mg/kg/day),0.85 ± 0.03 mm
same,IVS; s,[1]; Dox + Med10 (10 mg/kg/day),1.20 ± 0.03 mm
same,LVID; d,[1]; Dox + Med10 (10 mg/kg/day),3.70 ± 0.34
same,LVID; s,[1]; Dox + Med10 (10 mg/kg/day),2.58 ± 0.27
same,LVPW; d,[1]; Dox + Med10 (10 mg/kg/day),0.69 ± 0.10
same,LVPW; s,[1]; Dox + Med10 (10 mg/kg/day),1.00 ± 0.07
same,EF (Ejection fraction),[1]; Dox + Med30 (30 mg/kg/day),75.07 ± 2.29%
same,FS (Fractional shortening),[1]; Dox + Med30 (30 mg/kg/day),43.04 ± 2.03 %
same,IVS; d,[1]; Dox + Med30 (30 mg/kg/day),0.81 ± 0.04 mm
same,IVS; s,[1]; Dox + Med30 (30 mg/kg/day),1.19 ± 0.02 mm
same,LVID; d,[1]; Dox + Med30 (30 mg/kg/day),3.33 ± 0.07
same,LVID; s,[1]; Dox + Med30 (30 mg/kg/day),1.89 ± 0.06
same,LVPW; d,[1]; Dox + Med30 (30 mg/kg/day),0.74 ± 0.04
same,LVPW; s,[1]; Dox + Med30 (30 mg/kg/day),1.26 ± 0.07
same,EF (Ejection fraction),[1]; Dox + Med90 (90 mg/kg/day),72.92 ± 2.72%
same,FS (Fractional shortening),[1]; Dox + Med90 (90 mg/kg/day),41.19 ± 2.07 %
same,IVS; d,[1]; Dox + Med90 (90 mg/kg/day),0.86 ± 0.05 mm
same,IVS; s,[1]; Dox + Med90 (90 mg/kg/day),1.29 ± 0.09 mm
same,LVID; d,[1]; Dox + Med90 (90 mg/kg/day),3.30 ± 0.11
same,LVID; s,[1]; Dox + Med90 (90 mg/kg/day),1.94 ± 0.12
same,LVPW; d,[1]; Dox + Med90 (90 mg/kg/day),0.77 ± 0.06
same,LVPW; s,[1]; Dox + Med90 (90 mg/kg/day),1.15 ± 0.08
same,expression of EPO in kidney and heart,[1]; doxorubicin-induced mice,recovered and increased
same,"cardiomyocytes atrophy or hypertrophy, cytoplasmic vacuolization, myofibrillar loss, myocardial fibrosis (histology)",[1]; middle-high dosed treatment,significantly ameliorated
same,left ventricular posterior wall thickness (LVPWs),[1]; middle-high doses,increased
same,influence to renal function,"[1]; mouse, in vivo",no influence
same,heart rate (beats per second),[1]; three weeks after treatment,recovered to normal
same,endurance performance to exhaustion,doxorubicin-induced mice,enhanced
same,differentiation of erythroid progenitor cells,[2],enhanced
same,BUN levels,[3]; 30 and 90 mg/kg treatment groups,significantly recovered
same,recovery of anaemia (RBC number),"[3]; 30 and 90 mg/kg, day 33",almost complete recovery
same,white blood cell (WBC) number,"[3]; 30 and 90 mg/kg, week 3 to 4",significant recovery
same,renal function,[3]; 30 or 90 mg/kg,accelerated the recovery
same,amount of hemoglobin and number of functional RBC,[3]; high-middle dose,increased
same,renal function,[3]; low-dose 10 mg/kg,could not improve
same,HGF expression in liver,[3]; one month after treatment,increase
same,expression of EPO in liver and kidney,[3]; one month after treatment,increased
same,number of platelet (PLT),[3]; vs CDDP/Ctrl group after its recovery from cisplatin,no significant difference
